Among the data in BindingDB's records for doi:10.1021/jm0011171 (Stockholm University, 2001) are Ki values, retold here.

The target of the assay is T1, Dimer of Gag-Pol polyprotein [489-587] (Human immunodeficiency virus 1, UniProt P12497).
T1 construct: 489-587
As to the kind of experiment: Protease Inhibition Assay. The following applies: pH 5; 30 °C. The method, then:
A fluorimetric assay was used to determine the effects of the inhibitors on HIV-1 protease. This assay used an internally quenched fluorescent peptide substrate. The measurements were performed in 96-well plates with a Fluoroscan plate reader. Excitation and emission wavelengths were 355 nm and 500 nm, respectively.
On to `O=C(N[C@H]1c2ccccc2C[C@H]1O)[C@H](CCc1ccccc1)[C@H](O)[C@H](O)[C@@H](CCc1ccccc1)C(=O)N[C@H]1c2ccccc2C[C@H]1O` [N1,N6 -Bis[(2R)-hydroxy-(1S)-indanyl]-(2R,3R,4S,5R)-3,4-dihydroxy-2,5-bis(2-phenylethyl)hexanediamide], for which the affinity corresponds to a Ki of 28 nM.

Compound `O=C(N[C@H]1c2ccccc2C[C@H]1O)[C@H](OCc1ccccc1)[C@H](O)[C@@H](O)[C@@H](OCc1ccccc1)C(=O)N[C@H]1c2ccccc2C[C@H]1O` [symmetric/asymmetric inhibitor 2] came in with a Ki of 0.6 nM.

`O=C(N[C@H]1c2ccccc2C[C@H]1O)[C@H](CCc1ccccc1)[C@@H](O)[C@H](O)[C@@H](CCc1ccccc1)C(=O)N[C@H]1c2ccccc2C[C@H]1O` [(2R,3R,4R,5R)-3,4-dihydroxy-N,N'-bis[(1S,2R)-2-hydroxy-2,3-dihydro-1H-inden-1-yl]-2,5-bis(2-phenylethyl)hexanediamide] gave a Ki of 1.1 nM.

What is called Ki is a dissociation constant, usually derived from enzyme kinetics or from competition with a known ligand. Low readings indicate tighter binding, high ones weaker binding.
